From patent US8957017B2, “Dipeptoid prodrugs and their use” (Bayer Intellectual Property GmbH, priority 2007, dated 2015)
Structures can show the parent of a compound that is named as a salt.

Tests used:
[1] = Determination of the solubility in 5% strength aqueous dextrose solution; type: physicochemical; details: saline or isotonic, thermodynamic from solid; for solubility thermodynamic at 24 h: room temperature
Procedure: a) Determination of the Solubility:
The test substance is suspended in 5% strength aqueous dextrose solution. This suspension is shaken at room temperature for 24 h. After ultracentrifugation at 224 000 g for 30 min, the supernatant is diluted with DMSO and analysed by HPLC. A two-point calibration plot of the test compound in DMSO is used for quantification.
Agilent 1100 with DAD (G1315A), quat. Pump (G1311A), autosampler CTC HTS PAL, degasser (G1322A) and column thermostat (G1316A); column: Phenomenex Gemini C18, 5 μm, 50 mm×2 mm; temperature: 40° C.; eluent A: water/phosphoric acid pH 2, eluent B: acetonitrile; flow rate: 0.7 ml/min; gradient: 0-0.5 min 85% A, 15% B; ramp 0.5-3 min 10% A, 90% B; 3-3.5 min 10% A, 90% B; ramp 3.5-4 min 85% A, 15% B; 4-5 min 85% A, 15% B.
Agilent 1100 with DAD (G1315A), quat. pump (G1311A), autosampler CTC HTS PAL, degasser (G1322A) and column thermostat (G1316A); column: VDSoptilab Kromasil 100 C18, 3.5 μm, 60 mm×2.1 mm; temperature: 30° C.; eluent A: water+5 ml of perchloric acid/liter, eluent B: acetonitrile; flow rate: 0.75 ml/min; gradient: 0-0.5 min 98% A, 2% B; ramp 0.5-4.5 min 10% A, 90% B; 4.5-6 min 10% A, 90% B; ramp 6.5-6.7 min 98% A, 2% B; 6.7-7.5 min 98% A, 2% B.

[2] = Stability in buffer at various pH values; type: physicochemical
Procedure: b) Stability in Buffer at Various pH Values:
0.3 mg of the test substance is weighed into a 2 ml HPLC vial and 0.5 ml of acetonitrile or acetonitrile/DMSO (9:1) is added. The substance is dissolved by putting the sample vessel in an ultrasonic bath for about 10 seconds. Then 0.5 ml of the respective buffer solution is added, and the sample is again treated in the ultrasonic bath.
pH 2: 0.03 mol of citric acid, 0.061 mol of sodium chloride and 0.0082 mol of hydrochoric acid ad 1 liter of water;
pH 4: 1 liter of Millipore water is adjusted to pH 4.0 with 1 N hydrochloric acid;
pH 5: 0.096 mol of citric acid and 0.2 mol of sodium hydroxide ad 1 liter of water;
pH 6: 0.06 mol of citric acid and 0.16 mol of sodium hydroxide ad 1 liter of water;
pH 7.4: 90.0 g of sodium chloride, 13.61 g of potassium dihydrogen phosphate and 83.35 g of 1 N sodium hydroxide solution are made up to 1 liter with water; this solution is then further diluted 1:10 with Millipore water.
pH 8: 0.013 mol of borax and 0.021 mol of hydrochloric acid ad 1 liter of water.
5 μl portions of the test solution are analyzed by HPLC for their content of unchanged test substance, and of parent substance (A) produced, every hour over a period of 24 hours at 37° C. The percentage areas of the appropriate peaks are used for quantification.
The ratios of the peak areas (F) at the respective time points in relation to the peak areas at the starting time are shown in Table 2 for representative exemplary embodiments: […]

[3] = test system: heart rate of anesthetized rats; assay: Influence on the heart rate of anesthetized rats; type: in vivo; details: maximum decrease in the first 30 min after i.v. bolus of 100 μg/kg of (A) or equivalent dosages; anesthetized male Wistar rats
Procedure: f) Determination of the Influence on the Heart Rate of Anesthetized Rats:
Male Wistar rats with a body weight above 250 g are employed. In the night before the experiment, the animals receive no feed but still have free access to drinking water. Preparation and investigations are carried out under Trapanal® anesthesia (100 mg/kg i.p.). Injection and infusion take place through a catheter in the jugular vein, and the blood pressure is recorded via a catheter in the femoral artery (transducer: Braun, Melsungen). After the preparation, the animals are connected to a continuous infusion of physiological saline solution to compensate fluid losses. Test substance or placebo solution are administered as bolus after an equilibration time of about 1 h. Heart rate and arterial blood pressure are recorded during the equilibration and over a period of at least 30 min after the bolus injection with the aid of a digital evaluation program.
Table 4 lists the maximum heart rate decrease in the first 30 min after an i.v. bolus of 100 μg/kg of the active substance (A) or of equivalent dosages of representative exemplary embodiments: […]

## CC(C)C[C@H](NC(=O)[C@@H](N)CCCCN)C(=O)OCCOc1ccc(-c2c(C#N)c(N)nc(SCc3csc(-c4ccc(Cl)cc4)n3)c2C#N)cc1 [Example 11, 2-{4-[2-Amino-6-({[2-(4-chlorophenyl)-1,3-thiazol-4-yl]methyl}sulfanyl)-3,5-dicyanopyridin-4-yl]-phenoxy}ethyl L-lysyl-L-leucinate dihydrochloride]
[1]
  solubility thermodynamic at 24 h: > 500 µg/mL
[2]; pH 4, 37° C.
  % test substance after 4 h [F(t = 4 h) × 100/F(t = 0 h)]: 100%
  % test substance after 24 h [F(t = 24 h) × 100/F(t = 0 h)]: 100%
[2]; pH 7.4, 37° C.
  % test substance after 4 h [F(t = 4 h) × 100/F(t = 0 h)]: 90%
  % test substance after 24 h [F(t = 24 h) × 100/F(t = 0 h)]: 55%

## C[C@H](NC(=O)[C@@H](N)CCCNC(=N)N)C(=O)OCCOc1ccc(-c2c(C#N)c(N)nc(SCc3csc(-c4ccc(Cl)cc4)n3)c2C#N)cc1 [Example 14, 2-{4-[2-Amino-6-({[2-(4-chlorophenyl)-1,3-thiazol-4-yl]methyl}sulfanyl)-3,5-dicyanopyridin-4-yl]-phenoxy}ethyl L-arginyl-L-alaninate dihydrochloride]
[1]
  solubility thermodynamic at 24 h: > 500 µg/mL
[2]; pH 4, 37° C.
  % test substance after 4 h [F(t = 4 h) × 100/F(t = 0 h)]: 100%
  % test substance after 24 h [F(t = 24 h) × 100/F(t = 0 h)]: 100%
[2]; pH 7.4, 37° C.
  % test substance after 4 h [F(t = 4 h) × 100/F(t = 0 h)]: 68%
  % test substance after 24 h [F(t = 24 h) × 100/F(t = 0 h)]: 8%

## N#Cc1c(N)nc(SCc2csc(-c3ccc(Cl)cc3)n2)c(C#N)c1-c1ccc(OCCOC(=O)CC[C@H](NC(=O)CCC(=O)O)C(=O)O)cc1 [Example 9, (2S)-5-(2-{4-[2-Amino-6-({[2-(4-chlorophenyl)-1,3-thiazol-4-yl]methyl}thio)-3,5-dicyanopyridin-4-yl]phenoxy}ethoxy)-2-[(3-carboxypropanoyl)amino]-5-oxopentanoic acid]
[2]; pH 4, 37° C.
  % test substance after 4 h [F(t = 4 h) × 100/F(t = 0 h)]: 100%
  % test substance after 24 h [F(t = 24 h) × 100/F(t = 0 h)]: 100%
[2]; pH 7.4, 37° C.
  % test substance after 4 h [F(t = 4 h) × 100/F(t = 0 h)]: 100%
  % test substance after 24 h [F(t = 24 h) × 100/F(t = 0 h)]: 100%

## CC(C)[C@H](NC(=O)CCN)C(=O)OCCOc1ccc(-c2c(C#N)c(N)nc(SCc3csc(-c4ccc(Cl)cc4)n3)c2C#N)cc1 [Example 2, 2-{4-[2-Amino-6-({[2-(4-chlorophenyl)-1,3-thiazol-4-yl]methyl}thio)-3,5-dicyanopyridin-4-yl]-phenoxy}ethyl β-alanyl-L-valinate hydrochloride]
[2]; pH 4, 37° C.
  % test substance after 4 h [F(t = 4 h) × 100/F(t = 0 h)]: 100%
  % test substance after 24 h [F(t = 24 h) × 100/F(t = 0 h)]: 100%
[2]; pH 7.4, 37° C.
  % test substance after 4 h [F(t = 4 h) × 100/F(t = 0 h)]: 100%
  % test substance after 24 h [F(t = 24 h) × 100/F(t = 0 h)]: 100%

## N#Cc1c(N)nc(SCc2csc(-c3ccc(Cl)cc3)n2)c(C#N)c1-c1ccc(OCCOC(=O)CC[C@H](NC(=O)CCC(=O)O)C(=O)O)cc1 [Example 10, (2S)-5-(2-{4-[2-Amino-6-({[2-(4-chlorophenyl)-1,3-thiazol-4-yl]methyl}thio)-3,5-dicyanopyridin-4-yl]phenoxy}ethoxy)-2-[(3-carboxypropanoyl)amino]-5-oxopentanoic acid disodium salt]
[1]
  solubility thermodynamic at 24 h: 390 µg/mL
[2]; pH 4, 37° C., disodium salt
  % test substance after 24 h [F(t = 24 h) × 100/F(t = 0 h)]: 99%
[2]; pH 7.4, 37° C., disodium salt
  % test substance after 24 h [F(t = 24 h) × 100/F(t = 0 h)]: 99%

## N#Cc1c(N)nc(SCc2csc(-c3ccc(Cl)cc3)n2)c(C#N)c1-c1ccc(OCCO)cc1 [compound (A), 2-amino-6-({[2-(4-chlorophenyl)-1,3-thiazol-4-yl]methyl}thio)-4-[4-(2-hydroxy-ethoxy)phenyl]pyridine-3,5-dicarbonitrile, reference compound]
[1]
  solubility at 24 h: < 0.1 µg/mL
[3]
  Heart rate decrease: 24%

## N#Cc1c(N)nc(SCc2csc(-c3ccc(Cl)cc3)n2)c(C#N)c1-c1ccc(OCCOC(=O)[C@H](Cc2ccccc2)NC(=O)[C@@H](N)CCCCN)cc1 [Example 18, 2-{4-[2-Amino-6-({[2-(4-chlorophenyl)-1,3-thiazol-4-yl]methyl}sulfanyl)-3,5-dicyanopyridin-4-yl]-phenoxy}ethyl L-lysyl-L-phenylalaninate dihydrochloride]
[1]
  solubility thermodynamic at 24 h: 450 µg/mL

## N#Cc1c(N)nc(SCc2csc(-c3ccc(Cl)cc3)n2)c(C#N)c1-c1ccc(OCCOC(=O)CNC(=O)[C@@H](N)CCCCN)cc1 [Example 17, 2-{4-[2-Amino-6-({[2-(4-chlorophenyl)-1,3-thiazol-4-yl]methyl}sulfanyl)-3,5-dicyanopyridin-4-yl]-phenoxy}ethyl L-lysylglycinate dihydrochloride]
[1]
  solubility thermodynamic at 24 h: > 500 µg/mL

## C[C@H](NC(=O)[C@@H](N)Cc1cnc[nH]1)C(=O)OCCOc1ccc(-c2c(C#N)c(N)nc(SCc3csc(-c4ccc(Cl)cc4)n3)c2C#N)cc1 [Example 15, 2-{4-[2-Amino-6-({[2-(4-chlorophenyl)-1,3-thiazol-4-yl]methyl}sulfanyl)-3,5-dicyanopyridin-4-yl]-phenoxy}ethyl L-histidyl-L-alaninate dihydrochloride]
[1]
  solubility thermodynamic at 24 h: 450 µg/mL

## C[C@@H](NC(=O)[C@@H](N)CCCCN)C(=O)OCCOc1ccc(-c2c(C#N)c(N)nc(SCc3csc(-c4ccc(Cl)cc4)n3)c2C#N)cc1 [Example 12, 2-{4-[2-Amino-6-({[2-(4-chlorophenyl)-1,3-thiazol-4-yl]methyl}sulfanyl)-3,5-dicyanopyridin-4-yl]-phenoxy}ethyl L-lysyl-D-alaninate dihydrochloride]
[1]
  solubility thermodynamic at 24 h: > 500 µg/mL
[2]; pH 4, 37° C.
  % test substance after 4 h [F(t = 4 h) × 100/F(t = 0 h)]: 99%
  % test substance after 24 h [F(t = 24 h) × 100/F(t = 0 h)]: 98%
[2]; pH 7.4, 37° C.
  % test substance after 4 h [F(t = 4 h) × 100/F(t = 0 h)]: 49%
  % test substance after 24 h [F(t = 24 h) × 100/F(t = 0 h)]: 2%

## N#Cc1c(N)nc(SCc2csc(-c3ccc(Cl)cc3)n2)c(C#N)c1-c1ccc(OCCOC(=O)CC[C@@H](N)C(=O)NCCN)cc1 [Example 13, 2-{4-[2-Amino-6-({[2-(4-chlorophenyl)-1,3-thiazol-4-yl]methyl}sulfanyl)-3,5-dicyanopyridin-4-yl]-phenoxy}ethyl N-(2-aminoethyl)-D-α-glutaminate dihydrochloride]
[1]
  solubility thermodynamic at 24 h: > 500 µg/mL
[2]; pH 4, 37° C.
  % test substance after 4 h [F(t = 4 h) × 100/F(t = 0 h)]: 100%
  % test substance after 24 h [F(t = 24 h) × 100/F(t = 0 h)]: 99%
[2]; pH 7.4, 37° C.
  % test substance after 4 h [F(t = 4 h) × 100/F(t = 0 h)]: 24%
  % test substance after 24 h [F(t = 24 h) × 100/F(t = 0 h)]: 0%

## CC(C)[C@H](NC(=O)[C@@H](N)CCCNC(=N)N)C(=O)OCCOc1ccc(-c2c(C#N)c(N)nc(SCc3csc(-c4ccc(Cl)cc4)n3)c2C#N)cc1 [Example 3, 2-{4-[2-Amino-6-({[2-(4-chlorophenyl)-1,3-thiazol-4-yl]methyl}thio)-3,5-dicyanopyridin-4-yl]-phenoxy}ethyl L-arginyl-L-valinate dihydrochloride]
[1]
  solubility thermodynamic at 24 h: 450 µg/mL
[2]; pH 4, 37° C.
  % test substance after 4 h [F(t = 4 h) × 100/F(t = 0 h)]: 100%
  % test substance after 24 h [F(t = 24 h) × 100/F(t = 0 h)]: 100%
[2]; pH 7.4, 37° C.
  % test substance after 4 h [F(t = 4 h) × 100/F(t = 0 h)]: 99%
  % test substance after 24 h [F(t = 24 h) × 100/F(t = 0 h)]: 55%
